Results reported in ChEMBL document CHEMBL4334538, “Mitochondrial Impairment by Cyanine-Based Small Molecules Induces Apoptosis in Cancer Cells” (ACS Med Chem Lett, 2020).
The source made the active and inactive calls. The rule behind the calls is not given here.

Legend:
HeLa [1] = assay: Cytotoxicity against human HeLa cells assessed as cell viability at 10 uM after 24 hrs by MTT assay relative to control; format: functional; details: read-out: Activity
HeLa [2] = assay: Cytotoxicity against human HeLa cells assessed as cell death at 10 uM after 24 hrs by MTT assay; format: functional, cell-based
HeLa [3] = assay: Cytotoxicity against human HeLa cells assessed as cell killing after 24 hrs by MTT assay; format: functional, cell-based

SMILES | viability at 10 µM (HeLa [1]) [%] | Activity (HeLa [2]) | IC50 (HeLa [3]) [µM] | inhibition (HeLa [3])
CC(=O)O[C@H]1C(=O)[C@@]2(C)[C@H]([C@H](OC(=O)c3ccccc3)[C@]3(O)C[C@H](OC(=O)[C@H](O)[C@@H](NC(=O)c4ccccc4)c4ccccc4)C(C)=C1C3(C)C)[C@]1(OC(C)=O)CO[C@@H]1C[C@@H]2O [PACLITAXEL] | 68.7 | – | – | –
CCc1c2c(nc3ccc(O)cc13)-c1cc3c(c(=O)n1C2)COC(=O)[C@]3(O)CC | – | inactive | – | –
COc1ccc(-c2cc(OC)c(/C=C/C3=[N+](C)c4ccccc4C3(C)C)[nH]2)c(OC)c1 | – | – | 0.92 to 4.47 | Dose-dependent effect
COc1cc(-c2ccc3ccccc3c2)[nH]c1/C=C/C1=[N+](C)c2ccccc2C1(C)C | – | – | 0.92 to 4.47 | Dose-dependent effect
COC1=CC(c2cc3ccccc3[nH]2)=N/C1=C\c1[nH]c(C)cc1C [OBATOCLAX] | 70.3 | – | – | –
COc1cc(OC)cc(-c2cc(OC)c(/C=C/C3=[N+](C)c4ccccc4C3(C)C)[nH]2)c1 | – | – | 0.92 to 4.47 | Dose-dependent effect
COc1cc(-c2ccccc2)[nH]c1/C=C/C1=[N+](C)c2ccccc2C1(C)C | – | – | 0.92 to 4.47 | Dose-dependent effect
COc1cc(-c2ccco2)[nH]c1/C=C/C1=[N+](C)c2ccccc2C1(C)C | – | – | 0.92 to 4.47 | Dose-dependent effect
COc1cc(-c2c(OC)cccc2OC)[nH]c1/C=C/C1=[N+](C)c2ccccc2C1(C)C | – | – | 0.92 to 4.47 | Dose-dependent effect
COc1cc(-c2cc3ccccc3o2)[nH]c1/C=C/C1=[N+](C)c2ccccc2C1(C)C | – | – | 0.92 to 4.47 | Dose-dependent effect
